In one test the test system is HCT-116. In words: Cytotoxicity against human HCT116 cells. Type of test: functional, cell-based.
Test [1] concerns the target T1, Dual specificity protein kinase TTK (Homo sapiens, UniProt P33981).
T1 sequence (P33981 whole entry): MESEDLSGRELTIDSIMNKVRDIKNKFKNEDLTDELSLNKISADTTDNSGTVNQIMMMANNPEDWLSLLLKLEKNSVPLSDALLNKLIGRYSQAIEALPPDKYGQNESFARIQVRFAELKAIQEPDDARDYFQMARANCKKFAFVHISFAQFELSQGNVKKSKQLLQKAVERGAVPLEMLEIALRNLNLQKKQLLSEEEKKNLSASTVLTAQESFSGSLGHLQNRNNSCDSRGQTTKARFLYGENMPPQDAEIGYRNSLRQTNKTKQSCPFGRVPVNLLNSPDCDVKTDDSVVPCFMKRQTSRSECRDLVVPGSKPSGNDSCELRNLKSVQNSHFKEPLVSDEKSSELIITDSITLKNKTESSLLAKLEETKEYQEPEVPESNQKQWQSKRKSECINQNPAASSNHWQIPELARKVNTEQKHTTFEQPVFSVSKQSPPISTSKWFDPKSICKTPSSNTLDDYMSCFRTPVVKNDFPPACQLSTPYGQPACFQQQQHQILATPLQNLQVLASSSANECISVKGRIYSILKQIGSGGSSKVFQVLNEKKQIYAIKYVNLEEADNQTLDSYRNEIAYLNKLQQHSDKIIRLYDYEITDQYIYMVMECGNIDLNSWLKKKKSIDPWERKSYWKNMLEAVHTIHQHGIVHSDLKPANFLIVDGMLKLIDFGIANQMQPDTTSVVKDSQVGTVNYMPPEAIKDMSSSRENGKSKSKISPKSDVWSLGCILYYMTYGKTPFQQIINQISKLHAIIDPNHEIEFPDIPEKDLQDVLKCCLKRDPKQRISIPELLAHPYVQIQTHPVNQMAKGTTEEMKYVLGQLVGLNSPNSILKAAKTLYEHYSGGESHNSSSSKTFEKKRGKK
Put plainly: Inhibition of full-length Mps1 kinase (unknown origin).

The IC50 is the concentration that inhibits the measured activity by half. On to `Cc1cc(N2CCOCC2)ccc1Nc1nc(NC2CCCCC2)c2nc[nH]c2n1`, for which the IC50 in the test with HCT-116 amounted to 23 nM.

In test [1], `COc1cc(N2CCOCC2)ccc1Nc1ncc2ccc(-c3ccccc3)cc2n1` had an IC50 of over 100 nM.

In turn, `COc1cc(N2CCN(S(C)(=O)=O)CC2)ccc1Nc1nccc(NC2CCCCC2)n1` yielded an IC50 in test [1] of over 100 nM.

Turning to `COc1cc(N2CCN(S(C)(=O)=O)CC2)ccc1Nc1nccc(N(C)C2CCCCC2)n1`, the IC50 with HCT-116 came to 2000 nM; in test [1] it was 35 nM.

In the case of `COc1cc(N2CCN(S(C)(=O)=O)CC2)ccc1Nc1ncc(C)c(NC2CCCCC2)n1`, the figures for the IC50 (in the test with HCT-116; in test [1]) were 1500 nM and 28 nM, respectively.

`COc1cc(N2CCN(S(C)(=O)=O)CC2)ccc1Nc1ncc(C)c(N(C)C2CCCCC2)n1` displayed an IC50 in test [1] of over 100 nM.

Take `COc1cc(N2CCOCC2)ccc1Nc1ncc2ccn(C3CCCCC3)c2n1`: the figures for the IC50 (in the test on HCT-116; in test [1]) were 7500 nM and 46 nM, respectively.

`Cc1cc(N2CCOCC2)ccc1Nc1ncc2ccn(C3CCCCC3)c2n1`: the IC50 in the test with HCT-116 amounted to 8600 nM; in test [1] it was 22 nM.

Consider `COc1cc(N2CCN(S(C)(=O)=O)CC2)ccc1Nc1ncc2ccn(C3CCCCC3)c2n1`, for which the results for the IC50 (with HCT-116; in test [1]) were 750 nM and 20 nM, respectively.

`COc1cc(N2CCN(S(C)(=O)=O)CC2)ccc1Nc1ncc2ccn(-c3ccccc3)c2n1` had an IC50 in test [1] of over 100 nM.

Take `COc1cc(N2CCN(S(C)(=O)=O)CC2)ccc1Nc1ncc2ccn(-c3ccccn3)c2n1`: the IC50 in the test with HCT-116 turned out to be 10000 nM; in test [1], 32 nM.

With `COc1cc(N2CCN(S(C)(=O)=O)CC2)ccc1Nc1ncc2ccn(-c3cccnc3)c2n1`, the IC50 in test [1] is over 100 nM.

On to `COc1cc(N2CCOCC2)ccc1Nc1ncc2ccc(NC3CCCCC3)cc2n1`, for which the IC50 in test [1] is over 100 nM.

For the compound `COc1cc(N2CCOCC2)ccc1Nc1ncc2cccc(-c3ccccc3)c2n1`, the IC50 in the test with HCT-116 was 850 nM; in test [1] it was 12 nM.

For `COc1cc(N2CCOCC2)ccc1Nc1ncc2cccc(NC3CCCCC3)c2n1`, the half-inhibitory concentration (IC50) with HCT-116 is 6320 nM; in test [1] it was 9 nM.

As to `COc1cc(N2CCN(S(C)(=O)=O)CC2)ccc1Nc1ncc2cccc(-c3ccccc3)c2n1`, the IC50 in the test with HCT-116 worked out at 1740 nM; in test [1], 5 nM.

Consider `COc1cc(N2CCN(S(C)(=O)=O)CC2)ccc1Nc1ncc2cccc(-c3cccnc3)c2n1`, for which the IC50 in the test with HCT-116 worked out at 1580 nM; in test [1], 8 nM.

Regarding `COc1cc(N2CCN(S(C)(=O)=O)CC2)ccc1Nc1ncc2cccc(NC3CCCCC3)c2n1`, the IC50 with HCT-116 is 810 nM; in test [1], 2 nM.

The values are drawn from ChEMBL document CHEMBL3091390, “Novel Mps1 kinase inhibitors: from purine to pyrrolopyrimidine and quinazoline leads” (Bioorg Med Chem Lett, 2013).
